In the NIST ThermoML archive (doi:10.1021/je060170c):
Numbers after ± are expanded uncertainties.

Experiment: xn = mol fraction of the nth substance listed
Conditions: 101 kPa, Liquid; for viscosity: Anton Paar Stabinger viscometer

## COc1ccccc1 [anisole] + Cc1ccc(C)cc1
288.15 K, x1 = 0.0822
  viscosity: 0.728 ± 0.022 mPa·s
  mass density: 875.328 ± 0.36 kg/m3
  speed of sound: 1360.3 ± 5.5 m/s
288.15 K, x1 = 0.187
  viscosity: 0.778 ± 0.024 mPa·s
  mass density: 888.441 ± 0.34 kg/m3
  speed of sound: 1373.1 ± 5.5 m/s
288.15 K, x1 = 0.31
  viscosity: 0.829 ± 0.025 mPa·s
  mass density: 904.181 ± 0.33 kg/m3
  speed of sound: 1384.4 ± 5.6 m/s
288.15 K, x1 = 0.47
  viscosity: 0.884 ± 0.027 mPa·s
  mass density: 925.057 ± 0.3 kg/m3
  speed of sound: 1395.9 ± 5.6 m/s
288.15 K, x1 = 0.637
  viscosity: 0.958 ± 0.029 mPa·s
  mass density: 947.54 ± 0.28 kg/m3
  speed of sound: 1410.4 ± 5.7 m/s
288.15 K, x1 = 0.747
  viscosity: 1.013 ± 0.031 mPa·s
  mass density: 962.692 ± 0.26 kg/m3
  speed of sound: 1420.6 ± 5.7 m/s
288.15 K, x1 = 0.822
  viscosity: 1.109 ± 0.034 mPa·s
  mass density: 973.119 ± 0.25 kg/m3
  speed of sound: 1437 ± 5.7 m/s
288.15 K, x1 = 0.888
  viscosity: 1.145 ± 0.035 mPa·s
  mass density: 982.387 ± 0.24 kg/m3
  speed of sound: 1443 ± 5.8 m/s
288.15 K, x1 = 0.949
  viscosity: 1.167 ± 0.035 mPa·s
  mass density: 991.051 ± 0.23 kg/m3
  speed of sound: 1446.3 ± 5.8 m/s
288.15 K, x1 = 1
  viscosity: 1.188 ± 0.036 mPa·s
  mass density: 998.44 ± 0.23 kg/m3
  speed of sound: 1449.1 ± 5.8 m/s
293.15 K, x1 = 0.0822
  viscosity: 0.674 ± 0.02 mPa·s
  mass density: 871.032 ± 0.37 kg/m3
  speed of sound: 1339.5 ± 5.4 m/s
293.15 K, x1 = 0.187
  viscosity: 0.717 ± 0.022 mPa·s
  mass density: 884.105 ± 0.35 kg/m3
  speed of sound: 1352.5 ± 5.5 m/s
293.15 K, x1 = 0.31
  viscosity: 0.761 ± 0.023 mPa·s
  mass density: 899.758 ± 0.33 kg/m3
  speed of sound: 1364 ± 5.5 m/s
293.15 K, x1 = 0.47
  viscosity: 0.809 ± 0.025 mPa·s
  mass density: 920.561 ± 0.31 kg/m3
  speed of sound: 1375.3 ± 5.5 m/s
293.15 K, x1 = 0.637
  viscosity: 0.875 ± 0.027 mPa·s
  mass density: 942.968 ± 0.28 kg/m3
  speed of sound: 1389.9 ± 5.6 m/s
293.15 K, x1 = 0.747
  viscosity: 0.925 ± 0.028 mPa·s
  mass density: 958.092 ± 0.27 kg/m3
  speed of sound: 1400.3 ± 5.6 m/s
293.15 K, x1 = 0.822
  viscosity: 1.013 ± 0.031 mPa·s
  mass density: 968.502 ± 0.26 kg/m3
  speed of sound: 1416.7 ± 5.7 m/s
293.15 K, x1 = 0.888
  viscosity: 1.046 ± 0.032 mPa·s
  mass density: 977.769 ± 0.25 kg/m3
  speed of sound: 1422.5 ± 5.7 m/s
293.15 K, x1 = 0.949
  viscosity: 1.066 ± 0.032 mPa·s
  mass density: 986.356 ± 0.24 kg/m3
  speed of sound: 1425.8 ± 5.7 m/s
293.15 K, x1 = 1
  viscosity: 1.084 ± 0.033 mPa·s
  mass density: 993.651 ± 0.23 kg/m3
  speed of sound: 1428.5 ± 5.7 m/s
298.15 K, x1 = 0.0822
  viscosity: 0.635 ± 0.019 mPa·s
  mass density: 866.765 ± 0.37 kg/m3
  speed of sound: 1317.4 ± 5.4 m/s
298.15 K, x1 = 0.187
  viscosity: 0.674 ± 0.02 mPa·s
  mass density: 879.807 ± 0.36 kg/m3
  speed of sound: 1326.5 ± 5.4 m/s
298.15 K, x1 = 0.31
  viscosity: 0.714 ± 0.022 mPa·s
  mass density: 895.413 ± 0.34 kg/m3
  speed of sound: 1337.5 ± 5.4 m/s
298.15 K, x1 = 0.47
  viscosity: 0.759 ± 0.023 mPa·s
  mass density: 916.177 ± 0.32 kg/m3
  speed of sound: 1352.2 ± 5.5 m/s
298.15 K, x1 = 0.637
  viscosity: 0.821 ± 0.025 mPa·s
  mass density: 938.559 ± 0.29 kg/m3
  speed of sound: 1368.2 ± 5.5 m/s
298.15 K, x1 = 0.747
  viscosity: 0.868 ± 0.026 mPa·s
  mass density: 953.665 ± 0.28 kg/m3
  speed of sound: 1379.3 ± 5.6 m/s
298.15 K, x1 = 0.822
  viscosity: 0.952 ± 0.029 mPa·s
  mass density: 964.094 ± 0.26 kg/m3
  speed of sound: 1387.4 ± 5.6 m/s
298.15 K, x1 = 0.888
  viscosity: 0.985 ± 0.03 mPa·s
  mass density: 973.344 ± 0.25 kg/m3
  speed of sound: 1394.8 ± 5.6 m/s
298.15 K, x1 = 0.949
  viscosity: 1.003 ± 0.03 mPa·s
  mass density: 981.943 ± 0.25 kg/m3
  speed of sound: 1401.8 ± 5.6 m/s
298.15 K, x1 = 1
  viscosity: 1.017 ± 0.031 mPa·s
  mass density: 989.105 ± 0.24 kg/m3
  speed of sound: 1408 ± 5.7 m/s
303.15 K, x1 = 0.0822
  viscosity: 0.597 ± 0.018 mPa·s
  mass density: 862.434 ± 0.38 kg/m3
  speed of sound: 1296.9 ± 5.3 m/s
303.15 K, x1 = 0.187
  viscosity: 0.628 ± 0.019 mPa·s
  mass density: 875.432 ± 0.36 kg/m3
  speed of sound: 1306.5 ± 5.3 m/s
303.15 K, x1 = 0.31
  viscosity: 0.662 ± 0.02 mPa·s
  mass density: 890.974 ± 0.35 kg/m3
  speed of sound: 1317.6 ± 5.4 m/s
303.15 K, x1 = 0.47
  viscosity: 0.7 ± 0.021 mPa·s
  mass density: 911.659 ± 0.32 kg/m3
  speed of sound: 1332.7 ± 5.4 m/s
303.15 K, x1 = 0.637
  viscosity: 0.754 ± 0.023 mPa·s
  mass density: 933.983 ± 0.3 kg/m3
  speed of sound: 1349.1 ± 5.5 m/s
303.15 K, x1 = 0.747
  viscosity: 0.798 ± 0.024 mPa·s
  mass density: 949.069 ± 0.28 kg/m3
  speed of sound: 1360.5 ± 5.5 m/s
303.15 K, x1 = 0.822
  viscosity: 0.875 ± 0.027 mPa·s
  mass density: 959.511 ± 0.27 kg/m3
  speed of sound: 1368.5 ± 5.5 m/s
303.15 K, x1 = 0.888
  viscosity: 0.903 ± 0.027 mPa·s
  mass density: 968.761 ± 0.26 kg/m3
  speed of sound: 1375.6 ± 5.6 m/s
303.15 K, x1 = 0.949
  viscosity: 0.918 ± 0.028 mPa·s
  mass density: 977.313 ± 0.25 kg/m3
  speed of sound: 1382.3 ± 5.6 m/s
303.15 K, x1 = 1
  viscosity: 0.931 ± 0.028 mPa·s
  mass density: 984.372 ± 0.24 kg/m3
  speed of sound: 1387.7 ± 5.6 m/s
